Assay results as given in patent US5326882A, “Chemiluminescent 3-(substituted Adamant-2'-Ylidene) 1,2-dioxetanes” (Tropix, Inc., priority 1992, dated 1994).

Tests used:
[1] = target: T1, alkaline phosphatase (Bos taurus, UniProt P19111); test: Half-time to plateau at low alkaline phosphatase concentration (Example XLI); type: biochemical; settings: 0.4 mM dioxetane at pH 10.0; 31.5° C.; 2.53 × 10^-13 M alkaline phosphatase; listed as HO-AMPPD-B
[2] = target: T1, alkaline phosphatase; test: Chemiluminescent signal and signal:background with enhancer polymers (Example XVII); type: biochemical
Protocol: Four sets of three tubes each, each tube in each set containing 450 μl of a 0.4 mM aqueous solution of one of the four 1,2-dioxetanes being compared in 0.1M diethanolamine containing 1 mM magnesium chloride, 0.02% sodium azide and 0.1% of the enhancer polymer, pH 10.0 (substrate buffer) were prepared and the background signal from each tube measured using a Berthold LB 952T luminometer (Berthold Instruments; Wildbad, Federal Republic of Germany).
Next, 50 μl of an aqueous solution, 2.83×10^-12 M of alkaline phosphatase in 0.1M diethanolamine containing 1 mM magnesium chloride, 0.02% sodium azide, pH 10.0, (final enzyme concentration 2.83×10^-13 M) was added to each tube and the chemiluminescent signals were measured in the luminometer at 5 and 20 minutes. The intensity of the chemiluminescent signals and the signal: background ratios obtained for each of the four 1,2-dioxetanes in the presence of the enhancer polymers are shown in Table III below.
The enhancer polymers used, and the symbols for such polymers used in Table III, were the following: […]

T1 sequence (P19111 20-506 limits assumed): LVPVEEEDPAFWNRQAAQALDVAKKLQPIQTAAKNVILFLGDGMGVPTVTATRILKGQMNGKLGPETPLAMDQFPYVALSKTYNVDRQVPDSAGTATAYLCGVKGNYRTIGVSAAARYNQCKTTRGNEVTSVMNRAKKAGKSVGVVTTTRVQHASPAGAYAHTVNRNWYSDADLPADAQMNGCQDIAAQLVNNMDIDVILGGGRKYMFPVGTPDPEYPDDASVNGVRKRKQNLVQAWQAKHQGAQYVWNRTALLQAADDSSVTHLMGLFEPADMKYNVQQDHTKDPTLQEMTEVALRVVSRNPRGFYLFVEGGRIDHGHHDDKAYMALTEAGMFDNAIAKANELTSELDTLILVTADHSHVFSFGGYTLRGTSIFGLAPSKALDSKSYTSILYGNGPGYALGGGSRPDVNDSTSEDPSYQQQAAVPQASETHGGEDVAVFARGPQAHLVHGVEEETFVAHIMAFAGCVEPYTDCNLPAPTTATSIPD

For `COC1(c2cccc(OP(=O)(O)O)c2)OOC12C1CC3CC2CC(O)(C3)C1` (single isomer, unassigned) [B-OH-AMPPD, disodium 3-(4-methoxyspiro-[1,2-dioxetane-3,2'-(5'-hydroxy)tricyclo[3.3.1.1^3,7]decan]-4-yl)phenyl phosphate], the “HALF-TIME TO PLATEAU (min.) AL LOW ALK PHOS CONCENTRATION” value [1] was 1.03 min, the S/N ([2]; polymer BAEDM, 5 min) was 25.4 and the SIGNAL ([2]; polymer BAEDM, 5 min) was 4101.3. For the same compound, the S/N ([2]; polymer BAEDM, 20 min) was 34.3, the SIGNAL ([2]; polymer BAEDM, 20 min) was 5538.2 and the S/N ([2]; polymer BAEDM, time 0) was 1.0. The SIGNAL ([2]; polymer BAEDM, time 0 (background, before enzyme)) was 161.4, the S/N ([2]; polymer BZ, 5 min) was 18.8 and the SIGNAL ([2]; polymer BZ, 5 min) was 2246.4. It also gave a S/N ([2]; polymer BZ, 20 min) of 22.4, an SIGNAL ([2]; polymer BZ, 20 min) of 2669.2 and a S/N ([2]; polymer BZ, time 0) of 1.0. It also gave an SIGNAL ([2]; polymer BZ, time 0 (background, before enzyme)) of 119.4, a S/N ([2]; polymer DAA TMQ, 5 min) of 40.3 and an SIGNAL ([2]; polymer DAA TMQ, 5 min) of 5486.8. The S/N ([2]; polymer DAA TMQ, 20 min) was 49.0, the SIGNAL ([2]; polymer DAA TMQ, 20 min) was 6670.3 and the S/N ([2]; polymer DAA TMQ, time 0) was 1.0. For the same compound, the SIGNAL ([2]; polymer DAA TMQ, time 0 (background, before enzyme)) was 136.0, the S/N ([2]; polymer DME(OH)B, 5 min) was 20.0 and the SIGNAL ([2]; polymer DME(OH)B, 5 min) was 2640.9. The S/N ([2]; polymer DME(OH)B, 20 min) was 30.2, the SIGNAL ([2]; polymer DME(OH)B, 20 min) was 3990.6 and the S/N ([2]; polymer DME(OH)B, time 0) was 1.0. It also gave an SIGNAL ([2]; polymer DME(OH)B, time 0 (background, before enzyme)) of 132.1, a S/N ([2]; polymer DMEB, 5 min) of 35.7 and an SIGNAL ([2]; polymer DMEB, 5 min) of 4451.6. It also gave a S/N ([2]; polymer DMEB, 20 min) of 48.3, an SIGNAL ([2]; polymer DMEB, 20 min) of 6023.9 and a S/N ([2]; polymer DMEB, time 0) of 1.0. It also gave an SIGNAL ([2]; polymer DMEB, time 0 (background, before enzyme)) of 124.6, a S/N ([2]; polymer DMQ TEQ, 5 min) of 63.3 and an SIGNAL ([2]; polymer DMQ TEQ, 5 min) of 9213.8. For the same compound, the S/N ([2]; polymer DMQ TEQ, 20 min) was 57.0, the SIGNAL ([2]; polymer DMQ TEQ, 20 min) was 8288.0 and the S/N ([2]; polymer DMQ TEQ, time 0) was 1.0. It also gave an SIGNAL ([2]; polymer DMQ TEQ, time 0 (background, before enzyme)) of 145.5, a S/N ([2]; polymer MPB, 5 min) of 71.5 and an SIGNAL ([2]; polymer MPB, 5 min) of 10021.3. The S/N ([2]; polymer MPB, 20 min) was 78.0, the SIGNAL ([2]; polymer MPB, 20 min) was 10939.0 and the S/N ([2]; polymer MPB, time 0) was 1.0. The SIGNAL ([2]; polymer MPB, time 0 (background, before enzyme)) was 140.3, the S/N ([2]; polymer NONE, 5 min) was 26.3 and the SIGNAL ([2]; polymer NONE, 5 min, enzyme 2.83×10^-13 M) was 3314.8. It also gave a S/N ([2]; polymer NONE, 20 min) of 29.8, an SIGNAL ([2]; polymer NONE, 20 min, enzyme 2.83×10^-13 M) of 3767.9 and a S/N ([2]; polymer NONE, time 0) of 1.0. It also gave an SIGNAL ([2]; polymer NONE, time 0 (background, before enzyme)) of 126.3, a S/N ([2]; polymer S/TMQ(1:2), 5 min) of 20.6 and an SIGNAL ([2]; polymer S/TMQ(1:2), 5 min) of 3305.1. The S/N ([2]; polymer S/TMQ(1:2), 20 min) was 35.7, the SIGNAL ([2]; polymer S/TMQ(1:2), 20 min) was 5722.3 and the S/N ([2]; polymer S/TMQ(1:2), time 0) was 1.0. It also gave an SIGNAL ([2]; polymer S/TMQ(1:2), time 0 (background, before enzyme)) of 160.3, a S/N ([2]; polymer S/TMQ(1:4), 5 min) of 35.6 and an SIGNAL ([2]; polymer S/TMQ(1:4), 5 min) of 4775.3. It also gave a S/N ([2]; polymer S/TMQ(1:4), 20 min) of 53.1, an SIGNAL ([2]; polymer S/TMQ(1:4), 20 min) of 7120.3 and a S/N ([2]; polymer S/TMQ(1:4), time 0) of 1.0. It also gave an SIGNAL ([2]; polymer S/TMQ(1:4), time 0 (background, before enzyme)) of 134.0, an SIGNAL ([2]; polymer SAPPHIRE (BDMQ), time 0 (background, before enzyme)) of 138.8 and a S/N ([2]; polymer SAPPHIRE, 5 min) of 78.6. The SIGNAL ([2]; polymer SAPPHIRE, 5 min) was 10908.4, the S/N ([2]; polymer SAPPHIRE, 20 min) was 105.3 and the SIGNAL ([2]; polymer SAPPHIRE, 20 min) was 14625.4. For the same compound, the S/N ([2]; polymer SAPPHIRE, time 0) was 1.0, the S/N ([2]; polymer TBQ, 5 min) was 97.6 and the SIGNAL ([2]; polymer TBQ, 5 min) was 15508.5. It also gave a S/N ([2]; polymer TBQ, 20 min) of 131.1, an SIGNAL ([2]; polymer TBQ, 20 min) of 20830.8 and a S/N ([2]; polymer TBQ, time 0) of 1.0. For the same compound, the SIGNAL ([2]; polymer TBQ, time 0 (background, before enzyme)) was 158.9, the S/N ([2]; polymer TEQ, 5 min) was 61.8 and the SIGNAL ([2]; polymer TEQ, 5 min) was 8806.2. The S/N ([2]; polymer TEQ, 20 min) was 81.1, the SIGNAL ([2]; polymer TEQ, 20 min) was 11563.4 and the S/N ([2]; polymer TEQ, time 0) was 1.0. It also gave an SIGNAL ([2]; polymer TEQ, time 0 (background, before enzyme)) of 142.6, a S/N ([2]; polymer TMQ, 5 min) of 49.8 and an SIGNAL ([2]; polymer TMQ, 5 min) of 6258.9. It also gave a S/N ([2]; polymer TMQ, 20 min) of 70.5, an SIGNAL ([2]; polymer TMQ, 20 min) of 8857.8 and a S/N ([2]; polymer TMQ, time 0) of 1.0. The SIGNAL ([2]; polymer TMQ, time 0 (background, before enzyme)) was 125.7.
